Reference: ChEMBL document CHEMBL5608163, “Structure modification of anoplin for fighting resistant bacteria” (Eur J Med Chem, 2024)
In brackets after ≈: the same amount, converted by molar mass. Bridge positions count the residues as written; N and C are the ends. Square brackets hold non-standard residues; d marks the D form. Peptide text beside a SMILES is read from it. I, II: the chains in the order shown. * marks the point of attachment. ξ: configuration not given here. Lauroyl = CCCCCCCCCCCC(=O)*; Decanoyl = CCCCCCCCCC(=O)*; Hexanoyl = CCCCCC(=O)*; ξK = NCCCCC(N)C(=O)O; Butyryl = CCCC(=O)*

What was measured:
Staphylococcus aureus = assay: Antibacterial activity against Staphylococcus aureus ATCC 25923 assessed as reduction in bacterial cell growth incubated for 16 to 24 hrs by CLSI-protocol based Mueller-Hinton Broth micro-dilution method; type: functional; conditions: time 16-24 hrs
Pseudomonas aeruginosa = assay: Antibacterial activity against Pseudomonas aeruginosa ATCC 27853 assessed as reduction in bacterial cell growth incubated for 16 to 24 hrs by CLSI-protocol based Mueller-Hinton Broth micro-dilution method; type: functional; conditions: time 16-24 hrs
Klebsiella pneumoniae = assay: Antibacterial activity against Klebsiella pneumoniae ATCC 700603 assessed as reduction in bacterial cell growth incubated for 16 to 24 hrs by CLSI-protocol based Mueller-Hinton Broth micro-dilution method; type: functional; conditions: time 16-24 hrs
Escherichia coli = assay: Antibacterial activity against Escherichia coli ATCC 25922 assessed as reduction in bacterial cell growth incubated for 16 to 24 hrs by CLSI-protocol based Mueller-Hinton Broth micro-dilution method; type: functional; conditions: time 16-24 hrs
Bacillus subtilis = assay: Antibacterial activity against Bacillus subtilis ATCC 23857 assessed as reduction in bacterial cell growth incubated for 16 to 24 hrs by CLSI-protocol based Mueller-Hinton Broth micro-dilution method; type: functional; conditions: time 16-24 hrs
Erythrocyte = assay: Hemolytic activity in human erythrocyte incubated for 70 mins by absorbance based assay; type: toxicity, cell-based; conditions: 1.167 h

Row | Compound | MIC (Staphylococcus aureus) [µM] | MIC (Pseudomonas aeruginosa) [µM] | MIC (Klebsiella pneumoniae) [µM] | MIC (Escherichia coli) [µM] | MIC (Bacillus subtilis) [µM] | HC10 (Erythrocyte) [µM]
1 | I: Hexanoyl-GLLKRIKTLL[ξK][ξK]-NH2 / II: Hexanoyl-GLLKRIKTLL[ξK] / III: Hexanoyl-GLLKRIKTLL / IV: Hexanoyl-GLLKRIKTLL (amide I:11-IV:C, I:12-II:C, II:11-III:C) | 32 | 32 | 32 | 32 | 32 | 10.91
2 | CCCCCCCCCCCC(=O)NCC(=O)N[C@@H](CC(C)C)C(=O)N[C@@H](CC(C)C)C(=O)N[C@@H](CCCCN)C(=O)N[C@@H](CCCNC(=N)N)C(=O)N[C@H](C(=O)N[C@@H](CCCCN)C(=O)N[C@H](C(=O)N[C@@H](CC(C)C)C(=O)N[C@@H](CC(C)C)C(N)=O)[C@@H](C)O)[C@@H](C)CC (Lauroyl-GLLKRIKTLL-NH2) | 16 (≈ 21.4 µg/mL) | 32 (≈ 42.7 µg/mL) | 128 (≈ 171 µg/mL) | 64 (≈ 85.5 µg/mL) | 16 (≈ 21.4 µg/mL) | 11.38
3 | CCCCCCCCCCCC(=O)NCC(=O)N[C@@H](CC(C)C)C(=O)N[C@@H](CC(C)C)C(=O)N[C@@H](CCCCN)C(=O)N[C@@H](CCCNC(=N)N)C(=O)N[C@H](C(=O)N[C@@H](CCCCN)C(=O)N[C@H](C(=O)N[C@@H](CC(C)C)C(=O)N[C@@H](CC(C)C)C(=O)NCCCCC(NC(=O)[C@H](CC(C)C)NC(=O)[C@H](CC(C)C)NC(=O)[C@@H](NC(=O)[C@H](CCCCN)NC(=O)[C@@H](NC(=O)[C@H](CCCNC(=N)N)NC(=O)[C@H](CCCCN)NC(=O)[C@H](CC(C)C)NC(=O)[C@H](CC(C)C)NC(=O)CNC(=O)CCCCCCCCCCC)[C@@H](C)CC)[C@@H](C)O)C(N)=O)[C@@H](C)O)[C@@H](C)CC (some centres undefined) (I: Lauroyl-GLLKRIKTLL[ξK]-NH2 / II: Lauroyl-GLLKRIKTLL; amide I:11-II:C) | 256 (≈ 712 µg/mL) | 256 (≈ 712 µg/mL) | 256 (≈ 712 µg/mL) | 128 (≈ 356 µg/mL) | 256 (≈ 712 µg/mL) | 15.16
4 | CCCCCCCCCC(=O)NCC(=O)N[C@@H](CC(C)C)C(=O)N[C@@H](CC(C)C)C(=O)N[C@@H](CCCCN)C(=O)N[C@@H](CCCNC(=N)N)C(=O)N[C@H](C(=O)N[C@@H](CCCCN)C(=O)N[C@H](C(=O)N[C@@H](CC(C)C)C(=O)N[C@@H](CC(C)C)C(=O)NCCCCC(NC(=O)[C@H](CC(C)C)NC(=O)[C@H](CC(C)C)NC(=O)[C@@H](NC(=O)[C@H](CCCCN)NC(=O)[C@@H](NC(=O)[C@H](CCCNC(=N)N)NC(=O)[C@H](CCCCN)NC(=O)[C@H](CC(C)C)NC(=O)[C@H](CC(C)C)NC(=O)CNC(=O)CCCCCCCCC)[C@@H](C)CC)[C@@H](C)O)C(N)=O)[C@@H](C)O)[C@@H](C)CC (some centres undefined) (I: Decanoyl-GLLKRIKTLL[ξK]-NH2 / II: Decanoyl-GLLKRIKTLL; amide I:11-II:C) | 256 (≈ 698 µg/mL) | 256 (≈ 698 µg/mL) | 128 (≈ 349 µg/mL) | 64 (≈ 175 µg/mL) | 256 (≈ 698 µg/mL) | 26.56
5 | CCCCCCCCCC(=O)NCC(=O)N[C@@H](CC(C)C)C(=O)N[C@@H](CC(C)C)C(=O)N[C@@H](CCCCN)C(=O)N[C@@H](CCCNC(=N)N)C(=O)N[C@H](C(=O)N[C@@H](CCCCN)C(=O)N[C@H](C(=O)N[C@@H](CC(C)C)C(=O)N[C@@H](CC(C)C)C(N)=O)[C@@H](C)O)[C@@H](C)CC (Decanoyl-GLLKRIKTLL-NH2) | 8 (≈ 10.5 µg/mL) | 8 (≈ 10.5 µg/mL) | 16 (≈ 20.9 µg/mL) | 16 (≈ 20.9 µg/mL) | 8 (≈ 10.5 µg/mL) | 16.36
6 | CCCCCC(=O)NCC(=O)N[C@@H](CC(C)C)C(=O)N[C@@H](CC(C)C)C(=O)N[C@@H](CCCCN)C(=O)N[C@@H](CCCNC(=N)N)C(=O)N[C@H](C(=O)N[C@@H](CCCCN)C(=O)N[C@H](C(=O)N[C@@H](CC(C)C)C(=O)N[C@@H](CC(C)C)C(N)=O)[C@@H](C)O)[C@@H](C)CC (Hexanoyl-GLLKRIKTLL-NH2) | 64 (≈ 80.1 µg/mL) | 16 (≈ 20 µg/mL) | 128 (≈ 160 µg/mL) | 128 (≈ 160 µg/mL) | 16 (≈ 20 µg/mL) | > 256
7 | CCCCCCCCCC(=O)NCC(=O)N[C@@H](CC(C)C)C(=O)N[C@@H](CC(C)C)C(=O)N[C@@H](CCCCN)C(=O)N[C@@H](CCCNC(=N)N)C(=O)N[C@H](C(=O)N[C@@H](CCCCN)C(=O)N[C@H](C(=O)N[C@@H](CC(C)C)C(=O)N[C@@H](CC(C)C)C(=O)NCCCC[C@H](NC(=O)[C@H](CCCCNC(=O)[C@H](CC(C)C)NC(=O)[C@H](CC(C)C)NC(=O)[C@@H](NC(=O)[C@H](CCCCN)NC(=O)[C@@H](NC(=O)[C@H](CCCNC(=N)N)NC(=O)[C@H](CCCCN)NC(=O)[C@H](CC(C)C)NC(=O)[C@H](CC(C)C)NC(=O)CNC(=O)CCCCCCCCC)[C@@H](C)CC)[C@@H](C)O)NC(=O)[C@H](CC(C)C)NC(=O)[C@H](CC(C)C)NC(=O)[C@@H](NC(=O)[C@H](CCCCN)NC(=O)[C@@H](NC(=O)[C@H](CCCNC(=N)N)NC(=O)[C@H](CCCCN)NC(=O)[C@H](CC(C)C)NC(=O)[C@H](CC(C)C)NC(=O)CNC(=O)CCCCCCCCC)[C@@H](C)CC)[C@@H](C)O)C(N)=O)[C@@H](C)O)[C@@H](C)CC (I: Decanoyl-GLLKRIKTLLKK-NH2 / II: Decanoyl-GLLKRIKTLL / III: Decanoyl-GLLKRIKTLL; amide I:11-III:C, I:12-II:C) | – | – | – | – | – | 146.63
8 | CCCC(=O)NCC(=O)N[C@@H](CC(C)C)C(=O)N[C@@H](CC(C)C)C(=O)N[C@@H](CCCCN)C(=O)N[C@@H](CCCNC(=N)N)C(=O)N[C@H](C(=O)N[C@@H](CCCCN)C(=O)N[C@H](C(=O)N[C@@H](CC(C)C)C(=O)N[C@@H](CC(C)C)C(=O)NCCCC[C@H](NC(=O)[C@H](CCCCNC(=O)[C@H](CC(C)C)NC(=O)[C@H](CC(C)C)NC(=O)[C@@H](NC(=O)[C@H](CCCCN)NC(=O)[C@@H](NC(=O)[C@H](CCCNC(=N)N)NC(=O)[C@H](CCCCN)NC(=O)[C@H](CC(C)C)NC(=O)[C@H](CC(C)C)NC(=O)CNC(=O)CCC)[C@@H](C)CC)[C@@H](C)O)NC(=O)[C@H](CC(C)C)NC(=O)[C@H](CC(C)C)NC(=O)[C@@H](NC(=O)[C@H](CCCCN)NC(=O)[C@@H](NC(=O)[C@H](CCCNC(=N)N)NC(=O)[C@H](CCCCN)NC(=O)[C@H](CC(C)C)NC(=O)[C@H](CC(C)C)NC(=O)CNC(=O)CCC)[C@@H](C)CC)[C@@H](C)O)C(N)=O)[C@@H](C)O)[C@@H](C)CC (I: Butyryl-GLLKRIKTLLKK-NH2 / II: Butyryl-GLLKRIKTLL / III: Butyryl-GLLKRIKTLL; amide I:11-III:C, I:12-II:C) | – | – | – | – | – | 3.18
9 | CCCCCCCCCCCC(=O)NCC(=O)N[C@@H](CC(C)C)C(=O)N[C@@H](CC(C)C)C(=O)N[C@@H](CCCCN)C(=O)N[C@@H](CCCNC(=N)N)C(=O)N[C@H](C(=O)N[C@@H](CCCCN)C(=O)N[C@H](C(=O)N[C@@H](CC(C)C)C(=O)N[C@@H](CC(C)C)C(=O)NCCCC[C@H](NC(=O)[C@H](CCCCNC(=O)[C@H](CC(C)C)NC(=O)[C@H](CC(C)C)NC(=O)[C@@H](NC(=O)[C@H](CCCCN)NC(=O)[C@@H](NC(=O)[C@H](CCCNC(=N)N)NC(=O)[C@H](CCCCN)NC(=O)[C@H](CC(C)C)NC(=O)[C@H](CC(C)C)NC(=O)CNC(=O)CCCCCCCCCCC)[C@@H](C)CC)[C@@H](C)O)NC(=O)[C@H](CC(C)C)NC(=O)[C@H](CC(C)C)NC(=O)[C@@H](NC(=O)[C@H](CCCCN)NC(=O)[C@@H](NC(=O)[C@H](CCCNC(=N)N)NC(=O)[C@H](CCCCN)NC(=O)[C@H](CC(C)C)NC(=O)[C@H](CC(C)C)NC(=O)CNC(=O)CCCCCCCCCCC)[C@@H](C)CC)[C@@H](C)O)C(N)=O)[C@@H](C)O)[C@@H](C)CC (I: Lauroyl-GLLKRIKTLLKK-NH2 / II: Lauroyl-GLLKRIKTLL / III: Lauroyl-GLLKRIKTLL; amide I:11-III:C, I:12-II:C) | – | – | – | – | – | 103.52
